{"source": "patent US20100173331A1", "about": "“NOVEL NOTCH-ORIGIN POLYPEPTIDES AND BIOMARKERS AND REAGENTS USING THE SAME” (priority 2002, published 2010)", "target": "T1, presenilin (Homo sapiens, UniProt P49768)", "T1 construct": "endogenous in cells; probably K293", "experiment": "Pulse-chase of cells stably expressing F-NEXT with or without γ-secretase inhibitor; immunoprecipitation/SDS-PAGE of media (Nβ release) and lysates (NICD)", "type": "cell-based", "conditions": "1 μM inhibitor, 1 hour pulse, 2-hour chase", "description": "Human embryonic kidney 293 (K293), N2a and COS cells were cultured in DMEM supplemented with 10% fetal bovine serum, 1% penicillin/streptomycin, and 200 μg/ml zeocin (to select for PS1 expression), and/or 100 μg/ml hygromycin (to select for NΔE and F-NEXT expression). The K293 can stably express wild-type PS1, PS1 L286V, or PS1 D385N (Okochi et al, 2000, Kulic et al, 2000, Wolfe et al., 1999). The transfection with NΔE or F-NEXT was performed by means of a product named Lipofectamine 2000 (Invitrogen).\nTo determine NΔE N-terminal fragment (NTF: Nβ) release from NΔE expressing cells, K293 cells stably transfected with NΔE or NICD were grown to confluence in a 10 cm dish. The cells were then metabolically pulse-labeled for 2 hours with 300 μCi [^3H] amino acids (tritiated amino acid mixture, Amersham) in Earle's Balanced Salt Solution supplemented with MEM Vitamine Solution (Gibco) and several cold amino acids, followed by a 6-hour chase by 10% FCS/DMEM. To examine Nβ release, cells expressing F-NEXT were, at first, starved of methinine for 40 min with methionine-free media and then pulse-labeled for 1 hour with 400 μCi [^35S] amino acid mixture (Redivue Promix, Amersham) in methionine-free DMEM, followed by chasing for various time periods with the chase media containing 10% FCS/DMEM supplemented with excess cold methionine. […]"}
{"smiles": "CC(C)C[C@H](NC(=O)[C@H](Cc1ccccc1)C[C@@H](O)[C@H](Cc1ccccc1)NC(=O)OC(C)(C)C)C(=O)N[C@@H](Cc1ccccc1)C(N)=O", "note": "[L685,458, [(2R,4R,5S)-2-Benzyl-5-(Boc-amino)-4-hydroxy-6-phenyl-hexanoyl]-Leu-Phe-NH2]", "values": [{"measurement": "NICD band in cell lysates (S3 cleavage), immunoprecipitated with 9E10", "setting": "FIG. 5B lower panel", "value": "hardly visible"}, {"measurement": "Nβ release to culture media (S4 cleavage), immunoprecipitated with M2-agarose", "setting": "FIG. 5B upper panel", "value": "decreased drastically"}]}
